Data published in ChEMBL document CHEMBL1201862, “PubChem BioAssay data set” (2004).
Each block holds one molecule with its values, some of them ahead of it. Activity calls are given as the source filed them.

Legend:
[1] = molecular target: T1, Short transient receptor potential channel 4 (Mus musculus, UniProt Q9QUQ5); assay: potentiation of DAMGO-evoked TRPC4 calcium signal – cell-based, HEK293 TRPC4/mu-opioid, Fluo-4 calcium, EC20 DAMGO, dose response (AID 434941); assay type: functional
T1 sequence (Q9QUQ5 whole entry): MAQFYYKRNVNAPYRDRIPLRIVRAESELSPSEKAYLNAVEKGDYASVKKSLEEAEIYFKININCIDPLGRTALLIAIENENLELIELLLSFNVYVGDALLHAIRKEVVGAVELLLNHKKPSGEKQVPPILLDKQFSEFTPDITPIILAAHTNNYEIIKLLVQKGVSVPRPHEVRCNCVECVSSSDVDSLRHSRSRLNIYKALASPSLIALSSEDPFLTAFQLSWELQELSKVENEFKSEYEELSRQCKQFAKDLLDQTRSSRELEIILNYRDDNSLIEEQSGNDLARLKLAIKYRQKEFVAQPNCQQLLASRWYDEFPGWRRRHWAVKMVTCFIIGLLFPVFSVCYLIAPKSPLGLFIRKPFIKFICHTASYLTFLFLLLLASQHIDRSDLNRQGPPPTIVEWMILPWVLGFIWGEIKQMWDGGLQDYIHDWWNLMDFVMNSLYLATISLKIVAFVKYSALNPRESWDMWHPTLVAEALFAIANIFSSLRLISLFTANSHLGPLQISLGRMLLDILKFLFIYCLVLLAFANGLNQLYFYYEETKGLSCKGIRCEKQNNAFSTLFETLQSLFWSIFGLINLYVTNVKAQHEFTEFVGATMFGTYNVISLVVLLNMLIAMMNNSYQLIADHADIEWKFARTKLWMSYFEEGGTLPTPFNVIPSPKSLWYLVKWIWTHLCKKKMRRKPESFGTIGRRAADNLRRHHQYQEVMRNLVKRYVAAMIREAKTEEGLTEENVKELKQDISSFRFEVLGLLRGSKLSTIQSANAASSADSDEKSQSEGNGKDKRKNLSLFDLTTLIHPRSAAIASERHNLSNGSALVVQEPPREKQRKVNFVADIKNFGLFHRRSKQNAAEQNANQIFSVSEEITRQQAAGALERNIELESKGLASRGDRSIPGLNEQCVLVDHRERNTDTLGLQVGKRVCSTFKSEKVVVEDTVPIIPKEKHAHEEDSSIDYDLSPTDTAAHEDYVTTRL

Hexokinase HKDC1 = molecular target: T2, Hexokinase HKDC1 (Homo sapiens, UniProt Q2TB90); assay: activation of HKDC1 glucose phosphorylation – biochemical, W721R variant, dose response (AID 504730); assay type: functional
T2 sequence (Q2TB90 whole entry): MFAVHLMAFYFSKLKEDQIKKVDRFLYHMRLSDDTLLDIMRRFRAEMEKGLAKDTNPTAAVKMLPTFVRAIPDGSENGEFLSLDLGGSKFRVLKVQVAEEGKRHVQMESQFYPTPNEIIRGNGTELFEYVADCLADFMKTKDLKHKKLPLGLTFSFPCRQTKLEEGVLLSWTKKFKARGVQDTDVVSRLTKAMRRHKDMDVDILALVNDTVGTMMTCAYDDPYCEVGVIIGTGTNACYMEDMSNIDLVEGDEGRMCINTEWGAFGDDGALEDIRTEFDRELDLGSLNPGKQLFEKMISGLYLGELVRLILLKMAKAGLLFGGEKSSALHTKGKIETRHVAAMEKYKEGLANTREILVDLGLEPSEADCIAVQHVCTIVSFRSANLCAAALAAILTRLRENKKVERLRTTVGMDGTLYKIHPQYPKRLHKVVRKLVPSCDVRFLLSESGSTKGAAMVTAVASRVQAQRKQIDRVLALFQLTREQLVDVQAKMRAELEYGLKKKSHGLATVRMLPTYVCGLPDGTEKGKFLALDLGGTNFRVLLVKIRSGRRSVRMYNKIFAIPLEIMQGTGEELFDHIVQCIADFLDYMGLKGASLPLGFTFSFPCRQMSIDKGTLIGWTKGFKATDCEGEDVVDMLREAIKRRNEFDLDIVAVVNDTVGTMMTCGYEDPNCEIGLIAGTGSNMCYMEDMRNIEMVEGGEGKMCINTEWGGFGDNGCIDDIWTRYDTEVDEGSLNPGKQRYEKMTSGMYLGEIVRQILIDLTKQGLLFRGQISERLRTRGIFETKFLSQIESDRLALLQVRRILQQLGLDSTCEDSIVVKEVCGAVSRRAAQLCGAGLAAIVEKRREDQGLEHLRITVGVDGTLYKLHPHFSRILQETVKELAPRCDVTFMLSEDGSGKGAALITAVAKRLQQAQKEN

[2] = molecular target: T3, RNA-binding protein pos-1 (Caenorhabditis elegans, UniProt G5EF15); assay: disruptors of C. elegans POS-1 RNA interaction – biochemical, fluorescence polarization, dose response (AID 1964);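 also: purified POS-1 fused to maltose binding protein made in E. coli; potency of compounds blocking POS-1 binding to fluorescent RNA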
T3 sequence (G5EF15 whole entry): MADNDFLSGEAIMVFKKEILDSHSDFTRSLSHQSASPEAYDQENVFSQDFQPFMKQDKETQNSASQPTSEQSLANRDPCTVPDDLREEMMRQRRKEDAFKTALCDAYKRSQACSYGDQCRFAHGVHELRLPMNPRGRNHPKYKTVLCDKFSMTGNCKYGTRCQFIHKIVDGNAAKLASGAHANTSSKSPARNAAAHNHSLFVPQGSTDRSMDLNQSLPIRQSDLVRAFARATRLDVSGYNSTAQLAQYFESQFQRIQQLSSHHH

[3] = molecular target: T4, Zinc finger protein mex-5 (Caenorhabditis elegans, UniProt Q9XUB2); assay: potency of MEX-5 RNA-binding blockers – biochemical, C. elegans, fluorescence polarization, dose response (AID 1960)
T4 sequence (Q9XUB2 whole entry): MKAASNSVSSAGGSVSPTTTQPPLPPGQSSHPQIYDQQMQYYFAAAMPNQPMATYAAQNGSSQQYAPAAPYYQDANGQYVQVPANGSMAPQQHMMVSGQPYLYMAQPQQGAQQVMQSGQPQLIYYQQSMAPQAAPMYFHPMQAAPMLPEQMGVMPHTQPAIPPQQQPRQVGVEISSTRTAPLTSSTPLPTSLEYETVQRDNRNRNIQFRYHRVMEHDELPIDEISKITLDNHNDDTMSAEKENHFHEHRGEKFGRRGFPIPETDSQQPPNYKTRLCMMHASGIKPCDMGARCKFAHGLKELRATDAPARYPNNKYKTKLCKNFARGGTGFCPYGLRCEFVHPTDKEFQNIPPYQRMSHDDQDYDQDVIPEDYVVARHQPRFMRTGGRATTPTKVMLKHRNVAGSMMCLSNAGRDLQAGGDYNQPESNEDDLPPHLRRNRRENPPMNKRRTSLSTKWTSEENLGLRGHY

ORF 73 = ORF 73 (Human herpesvirus 8, UniProt O40947); assay: KSHV LANA DNA-binding disruption – biochemical, fluorescence polarization, cherry-picked samples, dose response (AID 504725); parameters: species or system Human gammaherpesvirus 8;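 also: fluorescence polarization of a labeled DNA duplex reporting LANA DNA binding; potency is for inhibitors that block LANA binding to the DNA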
Sequence of ORF 73 (O40947 whole entry): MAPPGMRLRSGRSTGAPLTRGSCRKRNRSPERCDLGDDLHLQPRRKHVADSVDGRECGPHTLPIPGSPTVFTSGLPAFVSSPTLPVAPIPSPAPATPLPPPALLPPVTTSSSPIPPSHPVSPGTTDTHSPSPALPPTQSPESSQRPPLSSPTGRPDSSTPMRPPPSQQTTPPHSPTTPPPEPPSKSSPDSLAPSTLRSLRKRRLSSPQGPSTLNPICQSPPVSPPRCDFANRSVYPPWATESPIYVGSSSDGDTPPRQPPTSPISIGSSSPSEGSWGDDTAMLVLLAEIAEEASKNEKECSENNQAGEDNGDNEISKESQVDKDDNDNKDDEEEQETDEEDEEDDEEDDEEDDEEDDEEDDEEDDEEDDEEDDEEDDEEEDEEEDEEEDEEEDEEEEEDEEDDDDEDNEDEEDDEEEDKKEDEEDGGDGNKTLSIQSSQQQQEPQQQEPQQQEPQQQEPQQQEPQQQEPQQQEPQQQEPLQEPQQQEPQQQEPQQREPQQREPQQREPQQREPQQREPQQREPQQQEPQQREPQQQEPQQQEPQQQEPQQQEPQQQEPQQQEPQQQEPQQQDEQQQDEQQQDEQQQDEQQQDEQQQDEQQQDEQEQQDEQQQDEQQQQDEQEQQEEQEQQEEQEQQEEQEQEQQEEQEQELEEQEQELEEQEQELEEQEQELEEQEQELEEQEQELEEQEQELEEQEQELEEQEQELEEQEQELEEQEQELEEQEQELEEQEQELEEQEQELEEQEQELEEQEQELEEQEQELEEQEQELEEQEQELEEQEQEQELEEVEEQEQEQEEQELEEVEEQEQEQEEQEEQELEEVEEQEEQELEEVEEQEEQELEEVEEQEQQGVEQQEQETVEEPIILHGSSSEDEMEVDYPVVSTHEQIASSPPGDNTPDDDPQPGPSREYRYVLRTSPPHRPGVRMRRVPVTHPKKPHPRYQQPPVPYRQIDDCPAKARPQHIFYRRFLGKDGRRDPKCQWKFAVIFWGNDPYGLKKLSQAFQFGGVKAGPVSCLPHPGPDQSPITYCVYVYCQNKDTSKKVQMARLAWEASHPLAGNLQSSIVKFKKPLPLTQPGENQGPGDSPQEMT

[4] = molecular target: T5, Corticotropin-releasing factor receptor 2/Corticotropin-releasing factor-binding protein (Homo sapiens, UniProt P24387+Q13324); assay: activators of CRF receptor 2 with binding protein – uHTS hits, confirmation (AID 602473); assay type: functional; conditions: read-out: EC50_Mean
T5 sequence (Q13324 whole entry): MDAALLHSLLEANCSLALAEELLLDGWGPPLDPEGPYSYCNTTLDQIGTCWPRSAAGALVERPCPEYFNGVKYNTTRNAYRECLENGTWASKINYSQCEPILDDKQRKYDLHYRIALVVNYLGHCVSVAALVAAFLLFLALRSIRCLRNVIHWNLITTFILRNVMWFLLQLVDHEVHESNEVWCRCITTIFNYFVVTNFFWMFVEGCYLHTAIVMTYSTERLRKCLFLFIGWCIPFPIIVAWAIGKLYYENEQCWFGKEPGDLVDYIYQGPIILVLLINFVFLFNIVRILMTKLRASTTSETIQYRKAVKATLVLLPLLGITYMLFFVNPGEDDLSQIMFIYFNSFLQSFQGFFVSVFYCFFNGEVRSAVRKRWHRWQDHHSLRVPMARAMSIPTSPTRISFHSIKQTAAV
T5 sequence (P24387 whole entry): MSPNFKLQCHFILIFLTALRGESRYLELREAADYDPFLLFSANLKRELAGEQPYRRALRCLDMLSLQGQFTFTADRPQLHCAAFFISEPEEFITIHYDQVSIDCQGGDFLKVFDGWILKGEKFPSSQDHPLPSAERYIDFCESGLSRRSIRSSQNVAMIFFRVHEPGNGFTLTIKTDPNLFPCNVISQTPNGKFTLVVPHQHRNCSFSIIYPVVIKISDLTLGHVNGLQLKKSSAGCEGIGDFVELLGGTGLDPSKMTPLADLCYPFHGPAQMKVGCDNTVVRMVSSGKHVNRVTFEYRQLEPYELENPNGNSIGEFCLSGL

Aminopeptidase N = molecular target: T6, Aminopeptidase N (Plasmodium falciparum FcB1/Columbia, UniProt O96935); assay: malaria alanyl aminopeptidase activity blockers – biochemical, fluorogenic H-Leu-NHMec substrate, 1536-well (AID 1445); parameters: species or system Plasmodium falciparum 3D7, 3D7
T6 sequence (O96935 whole entry): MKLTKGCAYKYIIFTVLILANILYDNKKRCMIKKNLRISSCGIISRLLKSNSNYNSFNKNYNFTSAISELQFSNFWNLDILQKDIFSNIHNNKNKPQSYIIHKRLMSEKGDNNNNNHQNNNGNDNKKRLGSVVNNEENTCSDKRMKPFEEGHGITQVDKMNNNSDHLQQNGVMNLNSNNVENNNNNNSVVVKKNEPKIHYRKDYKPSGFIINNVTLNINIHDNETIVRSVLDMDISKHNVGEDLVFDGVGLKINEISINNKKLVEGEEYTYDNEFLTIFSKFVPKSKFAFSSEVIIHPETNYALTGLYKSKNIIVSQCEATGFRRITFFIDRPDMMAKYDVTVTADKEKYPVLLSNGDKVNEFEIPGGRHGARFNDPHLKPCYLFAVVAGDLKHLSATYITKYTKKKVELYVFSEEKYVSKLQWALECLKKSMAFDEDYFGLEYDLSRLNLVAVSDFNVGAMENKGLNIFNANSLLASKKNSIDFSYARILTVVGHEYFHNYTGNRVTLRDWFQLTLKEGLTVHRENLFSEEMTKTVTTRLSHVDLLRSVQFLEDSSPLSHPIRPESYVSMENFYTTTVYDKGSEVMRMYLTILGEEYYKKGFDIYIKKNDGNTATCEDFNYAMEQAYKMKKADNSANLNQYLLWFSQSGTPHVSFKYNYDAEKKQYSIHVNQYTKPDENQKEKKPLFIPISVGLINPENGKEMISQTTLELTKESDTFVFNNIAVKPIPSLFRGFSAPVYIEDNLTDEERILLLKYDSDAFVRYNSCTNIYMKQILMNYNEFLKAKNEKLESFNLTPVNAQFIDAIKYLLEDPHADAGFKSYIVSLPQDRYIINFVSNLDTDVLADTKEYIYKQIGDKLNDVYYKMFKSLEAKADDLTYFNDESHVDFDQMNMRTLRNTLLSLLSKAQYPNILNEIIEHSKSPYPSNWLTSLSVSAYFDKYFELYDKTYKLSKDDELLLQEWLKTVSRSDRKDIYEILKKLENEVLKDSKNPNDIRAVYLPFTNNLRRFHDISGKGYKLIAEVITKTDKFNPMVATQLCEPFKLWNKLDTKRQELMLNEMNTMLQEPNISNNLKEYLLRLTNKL

[5] = molecular target: T7, Calpain-2 catalytic subunit (Sus scrofa, UniProt P43367); assay: m-calpain protease blockers, concentration series – biochemical, fluorogenic peptide substrate, dose response (AID 1420); assay type: functional
T7 sequence (P43367 whole entry): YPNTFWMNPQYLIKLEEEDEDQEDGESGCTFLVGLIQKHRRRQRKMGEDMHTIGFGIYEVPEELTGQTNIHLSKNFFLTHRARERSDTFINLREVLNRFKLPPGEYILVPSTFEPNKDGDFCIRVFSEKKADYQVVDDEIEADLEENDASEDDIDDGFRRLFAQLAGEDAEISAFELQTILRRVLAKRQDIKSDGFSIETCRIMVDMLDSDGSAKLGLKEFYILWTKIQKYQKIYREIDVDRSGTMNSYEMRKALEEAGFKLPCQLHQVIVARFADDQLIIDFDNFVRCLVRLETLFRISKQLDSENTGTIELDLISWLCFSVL

Troponin, cardiac muscle = Troponin, cardiac muscle (Homo sapiens, UniProt P19429+P45379+P63316); assay: Fluorescence-based biochemical high throughput dose response assay for activators of the calcium sensitivity of cardiac Regulated Thin Filaments (RTF). [Related pubchem assays (depositor defined):AID493008, AID493018, AID504382, AID504383]; assay type: protein-complex assay
[6] = molecular target: Voltage-dependent T-type calcium channel subunit alpha-1H (Homo sapiens, UniProt O95180); assay: human CACNA1H calcium influx blockade – cell-based, synthetic library set 1, calcium flux (AID 493022); assay type: functional
Sequence of Voltage-dependent T-type calcium channel subunit alpha-1H (O95180 whole entry): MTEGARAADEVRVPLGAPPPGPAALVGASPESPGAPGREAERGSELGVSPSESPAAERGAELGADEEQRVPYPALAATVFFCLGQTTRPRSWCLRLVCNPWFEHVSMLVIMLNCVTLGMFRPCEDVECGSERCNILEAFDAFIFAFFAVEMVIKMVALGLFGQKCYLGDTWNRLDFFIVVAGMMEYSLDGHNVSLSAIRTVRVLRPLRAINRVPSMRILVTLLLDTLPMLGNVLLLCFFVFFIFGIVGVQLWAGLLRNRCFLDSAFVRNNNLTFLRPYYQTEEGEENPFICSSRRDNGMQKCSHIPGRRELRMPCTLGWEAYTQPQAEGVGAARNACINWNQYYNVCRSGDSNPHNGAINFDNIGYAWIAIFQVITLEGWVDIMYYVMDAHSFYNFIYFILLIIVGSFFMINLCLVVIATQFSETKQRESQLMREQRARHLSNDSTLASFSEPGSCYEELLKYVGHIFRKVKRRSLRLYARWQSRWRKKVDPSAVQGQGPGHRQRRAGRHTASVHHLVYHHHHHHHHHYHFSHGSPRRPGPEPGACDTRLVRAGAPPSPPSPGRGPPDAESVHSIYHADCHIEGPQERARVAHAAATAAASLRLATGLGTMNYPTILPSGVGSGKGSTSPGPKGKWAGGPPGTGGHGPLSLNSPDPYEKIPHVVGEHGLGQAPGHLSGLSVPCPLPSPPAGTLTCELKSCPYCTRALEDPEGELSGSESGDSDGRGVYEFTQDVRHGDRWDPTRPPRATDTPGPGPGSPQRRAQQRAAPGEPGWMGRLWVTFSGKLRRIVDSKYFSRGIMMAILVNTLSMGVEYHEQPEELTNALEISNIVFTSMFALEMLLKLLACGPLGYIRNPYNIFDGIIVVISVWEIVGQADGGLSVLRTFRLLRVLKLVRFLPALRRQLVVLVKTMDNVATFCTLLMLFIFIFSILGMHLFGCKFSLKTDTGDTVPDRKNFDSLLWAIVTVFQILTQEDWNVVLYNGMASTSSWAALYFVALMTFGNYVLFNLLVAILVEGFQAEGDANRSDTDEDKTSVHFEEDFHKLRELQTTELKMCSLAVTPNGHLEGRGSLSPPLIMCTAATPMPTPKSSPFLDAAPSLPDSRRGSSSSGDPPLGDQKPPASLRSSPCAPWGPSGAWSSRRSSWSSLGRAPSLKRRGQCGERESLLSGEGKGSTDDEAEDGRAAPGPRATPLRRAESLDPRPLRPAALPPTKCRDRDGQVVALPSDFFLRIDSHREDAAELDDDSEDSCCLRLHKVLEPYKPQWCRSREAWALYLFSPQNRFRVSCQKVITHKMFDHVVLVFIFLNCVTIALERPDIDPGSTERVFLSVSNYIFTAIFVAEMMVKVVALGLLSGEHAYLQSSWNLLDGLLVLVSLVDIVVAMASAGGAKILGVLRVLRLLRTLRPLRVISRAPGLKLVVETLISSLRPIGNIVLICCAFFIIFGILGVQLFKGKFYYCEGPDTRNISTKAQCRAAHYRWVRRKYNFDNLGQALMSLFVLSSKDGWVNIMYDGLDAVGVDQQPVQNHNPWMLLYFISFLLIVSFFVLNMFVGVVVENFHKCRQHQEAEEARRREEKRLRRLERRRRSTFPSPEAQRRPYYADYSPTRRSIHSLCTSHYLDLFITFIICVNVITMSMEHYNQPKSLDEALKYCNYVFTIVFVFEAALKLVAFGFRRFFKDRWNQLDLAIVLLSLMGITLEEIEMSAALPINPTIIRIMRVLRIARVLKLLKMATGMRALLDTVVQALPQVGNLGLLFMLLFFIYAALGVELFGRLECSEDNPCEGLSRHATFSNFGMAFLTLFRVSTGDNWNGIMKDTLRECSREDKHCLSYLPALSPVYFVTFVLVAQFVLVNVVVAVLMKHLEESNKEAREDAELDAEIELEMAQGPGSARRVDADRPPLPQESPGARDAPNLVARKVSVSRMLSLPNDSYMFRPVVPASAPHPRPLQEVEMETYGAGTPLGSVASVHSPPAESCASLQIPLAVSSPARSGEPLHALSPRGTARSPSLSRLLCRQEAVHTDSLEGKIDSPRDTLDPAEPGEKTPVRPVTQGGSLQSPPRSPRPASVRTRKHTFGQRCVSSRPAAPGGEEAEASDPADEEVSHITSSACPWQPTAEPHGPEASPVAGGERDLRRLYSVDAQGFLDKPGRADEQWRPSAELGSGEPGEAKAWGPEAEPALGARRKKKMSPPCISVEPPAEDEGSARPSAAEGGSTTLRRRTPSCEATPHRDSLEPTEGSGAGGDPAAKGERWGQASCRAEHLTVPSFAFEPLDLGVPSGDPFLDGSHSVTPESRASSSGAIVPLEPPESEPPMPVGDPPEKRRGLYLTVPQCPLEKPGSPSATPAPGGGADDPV

Hexokinase = Hexokinase (Trypanosoma brucei, UniProt Q38C41); assay: Confirmation assay for inhibitors of Trypanosoma brucei hexokinase 1-Analogue-first series. [Related pubchem assays (depositor defined):AID1430, AID1632, AID2516, AID2560, AID2579, AID2600, AID449725, AID492951]; assay type: functional
Sequence of Hexokinase (Q38C41 whole entry): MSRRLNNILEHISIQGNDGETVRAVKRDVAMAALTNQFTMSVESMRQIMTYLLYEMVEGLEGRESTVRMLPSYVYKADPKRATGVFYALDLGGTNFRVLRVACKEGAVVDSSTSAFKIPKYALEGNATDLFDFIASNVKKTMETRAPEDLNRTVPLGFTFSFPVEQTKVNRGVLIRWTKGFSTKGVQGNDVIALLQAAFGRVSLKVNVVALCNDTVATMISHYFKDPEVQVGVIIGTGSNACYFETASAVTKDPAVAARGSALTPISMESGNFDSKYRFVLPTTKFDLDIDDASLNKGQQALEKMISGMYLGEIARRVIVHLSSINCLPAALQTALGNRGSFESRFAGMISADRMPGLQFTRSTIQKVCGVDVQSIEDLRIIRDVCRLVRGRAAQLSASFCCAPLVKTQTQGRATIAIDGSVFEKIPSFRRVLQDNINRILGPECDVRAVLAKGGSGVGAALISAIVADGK

[7] = molecular target: T1, Short transient receptor potential channel 4; assay: calcium entry via TRPC4 opening agents – cell-based, HEK293 TRPC4/mu-opioid, Fluo-4 calcium, dose response (AID 434937); assay type: functional

EC50 [1]: 0.67 µM (active)
Compound: COc1ccc(Cl)cc1C(=O)NCCN(C)C

EC50 (Hexokinase HKDC1): > 80 µM (inactive)
Compound: CCN(CC)C(=O)c1ccc(C(=O)c2c(C)cc(C)cc2C)cc1

IC50 (Aminopeptidase N): 53 µM (active)
IC50 [5]: > 50 µM (not active)
EC50 (Troponin, cardiac muscle): > 71.5 µM (inactive)
Compound: COc1ccc(/C=C/C(=O)NC(=S)Nc2ccc(C(=O)O)cc2)cc1

EC50 [6]: 1.1 µM (active)
Compound: O=C(COc1ccc(F)cc1Cl)Nc1nnc(-c2ccc(F)c(F)c2)o1

EC50 [1]: 0.42 µM (active)
EC50 [7]: 5.96 µM (active)
Compound: CCOC(=O)c1c(NC(=O)COC(=O)Cc2c[nH]c3ccccc23)sc(C(=O)N(C)C)c1C

More lines, now with the values behind:

Compound: COc1ccc(NC(=O)Cc2c[nH]c3ccccc23)cc1S(=O)(=O)N1CCCCC1
EC50 (Hexokinase HKDC1): > 80 µM (inactive)

Compound: Clc1ccc(C2=CC(c3ccco3)n3ncnc3N2)cc1 (configuration not stated)
EC50 [2]: 24.7 µM (inconclusive)
EC50 [3]: 3.36 µM (active)
AC50 (ORF 73): 171 µM (active)
EC50 [4]: 8.29 µM (active)

Compound: CC(Oc1ccccc1)C(=O)Nc1nnc(-c2ccc3c(c2)OCCO3)o1 (configuration not stated)
EC50 [6]: 10 µM (active)

Compound: COc1ccccc1NS(=O)(=O)c1cc([N+](=O)[O-])ccc1N/N=C/c1c(C)[nH]c2ccccc12
EC50 (Troponin, cardiac muscle): 2.57 µM (active)

Compound: O=C(c1ccccc1)n1sc2ccccc2c1=O
IC50 (Hexokinase): > 25 µM (inactive)

Compound: Cc1ccccc1NC(=O)Cn1sc2ccccc2c1=O
IC50 (Hexokinase): 8.52 µM (active)
